The results in this text go back to US9110076B2, “Method for quantifying modified peptides” (HVIVO SERVICES LIMITED, priority 2009, dated 2015).

Experiment [1] relates to AML-193. Kind of experiment: Sensitivity of AML cell lines to drug treatment (MTS assay). It counts as cell-based. Particulars: 72 h. As for the experimental part: (§1) Sensitivity of AML cell lines to drug treatment. Eight cell lines (AML-193, CMK, CTS, HEL, Kasumi-1, KG-1, MV4-11 and P31/FUJ) were seeded in 96 well plates at 1×10^5 cell/ml in triplicate for each condition. After a recovery period of 2 h, cells were treated with increasing concentrations (1 nM, 10 nM, 100 nM, 1 μM and 10 μM) of FLT3 inhibitor, MEK I inhibitor, JAK I inhibitor, LY294002, PI-103 and IC87114. As controls, cells were both treated with the vehicle (DMSO) and left untreated. After 72 hours treatment, cell viability was assessed by MTS assay (CellTiter 96® AQueous One Solution Cell Proliferation assay, Promega Corporation, Madison, Wis., USA).

For experiment [2], the system named is HEL. The description is as above. Particulars: 72 h. It counts as cell-based. As for the experimental part:
as §1

For experiment [3], the system named is P31/FUJ. Described as above. It counts as cell-based. As to conditions: 72 h. Here is the method: as §1
For experiment [4], the system named is MV4-11. Described as above. As to conditions: 72 h. It counts as cell-based. Here is the method:
as §1

Experiment [5] has as its system NIH-3T3 fibroblasts. The experiment can be described thus: TIQUAS quantification of phosphorylation sites in starved, serum-stimulated cells with or without wortmannin pre-incubation. It counts as cell-based, murine. As to conditions: of 2,350 phosphorylated peptides quantified; WM treatment of cells prior to serum stimulation; 4 experiments. Here is the method:
The novel quantitative techniques of the invention were used to quantify phosphorylation sites in NIH-3T3 fibroblasts, which were starved and then stimulated with serum with or without pre-incubation with the pan-PI3K inhibitor wortmannin (WM). These experiments were performed 4 times. […] Cells were treated as indicated, lysed with a urea-based buffer to obtain nuclear as well as cytosolic proteins and proteins digested. Resultant phosphorylated peptides were enriched by IMAC and TiO2 chromatography and quantified by LC-MS using a computer program developed by the inventors ([…]) (Cutillas and Vanhaesebroeck, Molecular & Cellular Proteomics 6, 1560-1573 (2007)). FIG. 2(B) gives a summary of the data obtained and a snapshot of the data sorted by probability.

As for `CC(C)(C)c1nc2c3cc[nH]c(=O)c3c3cc(F)ccc3c2[nH]1` [JAK I], the “sensitivity of cell line to inhibitor (survival by MTS assay)” value in experiment [1] is given as “sensitive”; in experiment [2], “resistant”.

As to `Oc1cccc(-c2nc(N3CCOCC3)c3oc4ncccc4c3n2)c1` [PI-103], the entries for the “sensitivity of cell line to inhibitor (survival by MTS assay)” value in experiment [3] and in experiment [4] were “resistant” and “sensitive”, respectively.

Turning to `COC[C@H]1OC(=O)c2coc3c2[C@@]1(C)C1=C(C3=O)[C@@H]2CCC(=O)[C@@]2(C)C[C@H]1OC(C)=O` [WM, wortmannin], the “phosphorylated peptides significantly (p<0.05) affected by WM treatment” value in experiment [5] is recorded as 265.
